According to patent publication US9505762B2, “Purine derivatives as CB2 receptor agonists” (Hoffmann-La Roche Inc., priority 2013, dated 2016):

Key:
human CB1 receptors = human CB1 receptors (Homo sapiens (Human), UniProt P21554); assay: functional cAMP assay, CB1; type: cell-based; conditions: CHO cells expressing human CB1
Procedure: (§1) The growth medium was exchanged with Krebs Ringer Bicarbonate buffer with 1 mM IBMX and incubated at 30° C. for 30 min. Compounds were added to a final assay volume of 100 μl and incubated for 30 min at 30° C. Using the cAMP-Nano-TRF detection kit the assay (Roche Diagnostics) was stopped by the addition of 50 μl lysis reagent (Tris, NaCl, 1.5% Triton X100, 2.5% NP40, 10% NaN3) and 50 μl detection solutions (20 μM mAb Alexa700-cAMP 1:1, and 48 μM Ruthenium-2-AHA-cAMP) and shaken for 2 h at room temperature. The time-resolved energy transfer is measured by a TRF reader (Evotec Technologies GmbH), equipped with a ND:YAG laser as excitation source. The plate is measured twice with the excitation at 355 nm and at the emission with a delay of 100 ns and a gate of 100 ns, total exposure time 10 s at 730 (bandwidth 30 nm) or 645 nm (bandwidth 75 nm), respectively.
(§2) EC50 values were determined using Activity Base analysis (ID Business Solution, Limited).

human CB2 receptors = human CB2 receptors (Homo sapiens (Human), UniProt P34972); assay: functional cAMP assay, CB2; type: cell-based; conditions: CHO cells expressing human CB2
Procedure: as §1, §2

human CB1 receptors, sequence (P21554 whole entry): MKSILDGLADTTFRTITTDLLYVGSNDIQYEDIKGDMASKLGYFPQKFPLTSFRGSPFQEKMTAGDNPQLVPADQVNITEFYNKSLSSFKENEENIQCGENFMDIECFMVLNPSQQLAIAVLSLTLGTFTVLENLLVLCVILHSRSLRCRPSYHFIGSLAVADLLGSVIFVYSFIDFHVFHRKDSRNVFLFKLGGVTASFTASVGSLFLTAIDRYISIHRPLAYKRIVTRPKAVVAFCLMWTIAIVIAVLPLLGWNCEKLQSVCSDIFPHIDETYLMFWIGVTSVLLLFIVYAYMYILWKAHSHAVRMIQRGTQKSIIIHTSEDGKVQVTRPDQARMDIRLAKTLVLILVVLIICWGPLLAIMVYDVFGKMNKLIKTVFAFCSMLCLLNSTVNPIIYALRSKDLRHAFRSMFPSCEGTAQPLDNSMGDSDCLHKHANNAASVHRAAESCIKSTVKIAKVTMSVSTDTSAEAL
human CB2 receptors, sequence (P34972 whole entry): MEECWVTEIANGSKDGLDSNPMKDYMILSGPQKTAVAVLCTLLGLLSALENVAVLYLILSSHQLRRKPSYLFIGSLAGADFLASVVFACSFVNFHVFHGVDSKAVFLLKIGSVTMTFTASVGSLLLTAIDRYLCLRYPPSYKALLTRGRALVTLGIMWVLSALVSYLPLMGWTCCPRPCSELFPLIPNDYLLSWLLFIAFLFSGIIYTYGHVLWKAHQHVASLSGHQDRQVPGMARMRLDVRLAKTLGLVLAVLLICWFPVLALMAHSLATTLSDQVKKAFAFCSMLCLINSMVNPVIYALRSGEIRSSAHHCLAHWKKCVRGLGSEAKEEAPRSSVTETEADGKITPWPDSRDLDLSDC

CC(=O)N[C@H]1CCN(c2nc(C(C)(C)C)nc3c2ncn3Cc2ccccc2S(C)(=O)=O)C1 [Example 52, N—[(S)-1-[2-tert-butyl-9-[(2-methylsulfonylphenyl)methyl]purin-6-yl]pyrrolidin-3-yl]acetamide]
EC50 (human CB1 receptors): > 10 µM | EC50 (human CB2 receptors): 229 nM

CC(=O)N[C@H]1CCN(c2nc(C(C)(C)C)nc3c2ncn3Cc2cccnc2Cl)C1 [Example 53, N—[(S)-1-[2-tert-butyl-9-[(2-chloropyridin-3-yl)methyl]purin-6-yl]pyrrolidin-3-yl]acetamide]
EC50 (human CB1 receptors): > 10 µM | EC50 (human CB2 receptors): 175 nM

CC(=O)N[C@H]1CCN(c2nc(C(C)(C)C)nc3c2ncn3Cc2ncccc2Cl)C1 [Example 54, N—[(S)-1-[2-tert-butyl-9-[(3-chloropyridin-2-yl)methyl]purin-6-yl]pyrrolidin-3-yl]acetamide]
EC50 (human CB1 receptors): > 10 µM | EC50 (human CB2 receptors): 388 nM

CC(C)(C)c1nc(N2CCC3(COC3)C2)c2ncn(Cc3ccccc3Cl)c2n1 [Example 56, 7-[2-tert-butyl-9-[(2-chlorophenyl)methyl]purin-6-yl]-2-oxa-7-azaspiro[3.4]octane]
EC50 (human CB1 receptors): > 10 µM | EC50 (human CB2 receptors): 55.8 nM

CC(C)(C)c1nc(N2CCC3(COC3)C2)c2ncn(Cc3cccc(Cl)c3)c2n1 [Example 57, 7-[2-tert-butyl-9-[(3-chlorophenyl)methyl]purin-6-yl]-2-oxa-7-azaspiro[3.4]octane]
EC50 (human CB1 receptors): > 10 µM | EC50 (human CB2 receptors): 466 nM

CC(C)(C)c1nc(N2CCC3(COC3)C2)c2ncn(Cc3ccc(Cl)cc3)c2n1 [Example 58, 7-[2-tert-butyl-9-[(4-chlorophenyl)methyl]purin-6-yl]-2-oxa-7-azaspiro[3.4]octane]
EC50 (human CB1 receptors): > 10 µM | EC50 (human CB2 receptors): 506 nM

CC(C)(C)c1nc(N2CCC3(COC3)C2)c2ncn(Cc3ccccc3C(F)(F)F)c2n1 [Example 59, 7-[2-tert-butyl-9-[[2-(trifluoromethyl)phenyl]methyl]purin-6-yl]-2-oxa-7-azaspiro[3.4]octane]
EC50 (human CB1 receptors): > 10 µM | EC50 (human CB2 receptors): 16.7 nM

CC(C)(C)c1nc(N2CCC3(COC3)C2)c2ncn(Cc3ccccc3S(C)(=O)=O)c2n1 [Example 60, 7-[2-tert-butyl-9-[(2-methylsulfonylphenyl)methyl]purin-6-yl]-2-oxa-7-azaspiro[3.4]octane]
EC50 (human CB1 receptors): > 10 µM | EC50 (human CB2 receptors): 175 nM

CC(C)(C)c1nc(N2CCC3(COC3)C2)c2ncn(Cc3cccnc3Cl)c2n1 [Example 61, 7-[2-tert-butyl-9-[(2-chloropyridin-3-yl)methyl]purin-6-yl]-2-oxa-7-azaspiro[3.4]octane]
EC50 (human CB1 receptors): > 10 µM | EC50 (human CB2 receptors): 29.6 nM

Cc1nonc1Cn1cnc2c(N3CCC4(COC4)C3)nc(C(C)(C)C)nc21 [Example 62, 7-[2-tert-butyl-9-[(4-methyl-1,2,5-oxadiazol-3-yl)methyl]purin-6-yl]-2-oxa-7-azaspiro[3.4]octane]
EC50 (human CB1 receptors): > 10 µM | EC50 (human CB2 receptors): 146 nM

COCCn1cnc2c(N3CCC4(COC4)C3)nc(C(C)(C)C)nc21 [Example 63, 7-[2-tert-butyl-9-(2-methoxyethyl)purin-6-yl]-2-oxa-7-azaspiro[3.4]octane]
EC50 (human CB1 receptors): > 10 µM | EC50 (human CB2 receptors): 661 nM

CC1(O)CCN(c2nc(C(C)(C)C)nc3c2ncn3Cc2ccccc2Cl)C1 (centres unmarked) [Example 64, 1-[2-tert-butyl-9-[(2-chlorophenyl)methyl]purin-6-yl]-3-methylpyrrolidin-3-ol]
EC50 (human CB1 receptors): > 10 µM | EC50 (human CB2 receptors): 13.4 nM

CC1(O)CCN(c2nc(C(C)(C)C)nc3c2ncn3Cc2cccc(Cl)c2)C1 (centres unmarked) [Example 65, 1-[2-tert-butyl-9-[(3-chlorophenyl)methyl]purin-6-yl]-3-methylpyrrolidin-3-ol]
EC50 (human CB1 receptors): > 10 µM | EC50 (human CB2 receptors): 91.6 nM

CC1(O)CCN(c2nc(C(C)(C)C)nc3c2ncn3Cc2ccccc2C(F)(F)F)C1 (centres unmarked) [Example 67, 1-[2-tert-butyl-9-[[2-(trifluoromethyl)phenyl]methyl]purin-6-yl]-3-methylpyrrolidin-3-ol]
EC50 (human CB1 receptors): > 10 µM | EC50 (human CB2 receptors): 9 nM

CC1(O)CCN(c2nc(C(C)(C)C)nc3c2ncn3Cc2cccnc2Cl)C1 (centres unmarked) [Example 68, 1-[2-tert-butyl-9-[(2-chloropyridin-3-yl)methyl]purin-6-yl]-3-methylpyrrolidin-3-ol]
EC50 (human CB1 receptors): > 10 µM | EC50 (human CB2 receptors): 24.8 nM

CC1(O)CCN(c2nc(C(C)(C)C)nc3c2ncn3Cc2ncccc2Cl)C1 (centres unmarked) [Example 69, 1-[2-tert-butyl-9-[(3-chloropyridin-2-yl)methyl]purin-6-yl]-3-methylpyrrolidin-3-ol]
EC50 (human CB1 receptors): > 10 µM | EC50 (human CB2 receptors): 46.8 nM

CC1(O)CCN(c2nc(C(C)(C)C)nc3c2ncn3Cc2ccccc2S(C)(=O)=O)C1 (centres unmarked) [Example 74, 1-[2-tert-butyl-9-[(2-methylsulfonylphenyl)methyl]purin-6-yl]-3-methylpyrrolidin-3-ol]
EC50 (human CB1 receptors): > 10 µM | EC50 (human CB2 receptors): 88.4 nM

CC(=O)N[C@H]1CCN(c2nc(C(C)(C)C)nc3c2ncn3Cc2c[nH]nc2C(F)(F)F)C1 [Example 75, N—[(S)-1-[2-tert-butyl-9-[[3-(trifluoromethyl)-1H-pyrazol-4-yl]methyl]purin-6-yl]pyrrolidin-3-yl]acetamide]
EC50 (human CB1 receptors): > 10 µM | EC50 (human CB2 receptors): 280 nM

CC(C)(C)c1nc(N2CCC3(COC3)C2)c2ncn(Cc3c[nH]nc3C(F)(F)F)c2n1 [Example 76, 7-[2-tert-butyl-9-[[3-(trifluoromethyl)-1H-pyrazol-4-yl]methyl]purin-6-yl]-2-oxa-7-azaspiro[3.4]octane]
EC50 (human CB1 receptors): > 10 µM | EC50 (human CB2 receptors): 153 nM

CC(=O)N[C@H]1CCN(c2nc(C(C)(C)C)nc3c2ncn3Cc2n[nH]cc2C(F)(F)F)C1 [Example 77, N—[(S)-1-[2-tert-butyl-9-[[4-(trifluoromethyl)-1H-pyrazol-3-yl]methyl]purin-6-yl]pyrrolidin-3-yl]acetamide]
EC50 (human CB1 receptors): > 10 µM | EC50 (human CB2 receptors): 205 nM

CC(C)(C)c1nc(N2CCC3(COC3)C2)c2ncn(Cc3n[nH]cc3C(F)(F)F)c2n1 [Example 78, 7-[2-tert-butyl-9-[[4-(trifluoromethyl)-1H-pyrazol-3-yl]methyl]purin-6-yl]-2-oxa-7-azaspiro[3.4]octane]
EC50 (human CB1 receptors): > 10 µM | EC50 (human CB2 receptors): 17.5 nM

Cc1nnc(Cn2cnc3c(N4CC(F)(F)C(F)(F)C4)nc(C(C)(C)C)nc32)o1 [Example 79, 2-[[2-tert-butyl-6-(3,3,4,4-tetrafluoropyrrolidin-1-yl)purin-9-yl]methyl]-5-methyl-1,3,4-oxadiazole]
EC50 (human CB1 receptors): > 10 µM | EC50 (human CB2 receptors): 116 nM

Cc1noc(Cn2cnc3c(N4CC(F)(F)C(F)(F)C4)nc(C(C)(C)C)nc32)n1 [Example 80, 5-[[2-tert-butyl-6-(3,3,4,4-tetrafluoropyrrolidin-1-yl)purin-9-yl]methyl]-3-methyl-1,2,4-oxadiazole]
EC50 (human CB1 receptors): > 10 µM | EC50 (human CB2 receptors): 179 nM

COCCn1cnc2c(N3CC(F)(F)C(F)(F)C3)nc(C(C)(C)C)nc21 [Example 83, 2-tert-butyl-9-(2-methoxyethyl)-6-(3,3,4,4-tetrafluoropyrrolidin-1-yl)purine]
EC50 (human CB1 receptors): > 10 µM | EC50 (human CB2 receptors): 64.6 nM

CC1(O)CCN(c2nc(C(C)(C)C)nc3c2ncn3Cc2c[nH]nc2C(F)(F)F)C1 (centres unmarked) [Example 84, 1-[2-tert-butyl-9-[[3-(trifluoromethyl)-1H-pyrazol-4-yl]methyl]purin-6-yl]-3-methylpyrrolidin-3-ol]
EC50 (human CB1 receptors): > 10 µM | EC50 (human CB2 receptors): 79.3 nM
